# According to ChEMBL document CHEMBL3885881, “DrugMatrix”:
# Species: Rattus norvegicus
# Format: toxicity, organism-based, Sprague-Dawley
# Details: in vivo, 24 h, time 1 day; for ABSOLUTE EOSINOPHIL / ABSOLUTE LYMPHOCYTE / ABSOLUTE MONOCYTE / ABSOLUTE SEGMENTED NEUTROPHIL / BASOPHIL / EOSINOPHIL / ERYTHROCYTE COUNT / HEMATOCRIT / HEMOGLOBIN / LEUKOCYTE COUNT / LYMPHOCYTE / MEAN CORPUSCULAR HEMOGLOBIN / MEAN CORPUSCULAR HEMOGLOBIN CONCENTRATION / MEAN CORPUSCULAR VOLUME / MONOCYTE / NEUTROPHIL / NUCLEATED RED BLOOD CELLS / PLATELET COUNT / ABSOLUTE BASOPHIL: tissue Blood; for ALANINE AMINOTRANSFERASE / ALBUMIN / ALKALINE PHOSPHATASE / ASPARTATE AMINOTRANSFERASE / BLOOD UREA NITROGEN / CARBON DIOXIDE / CHLORIDE / CHOLESTEROL / CREATININE / GLUCOSE / LACTATE DEHYDROGENASE / LIPASE / PHOSPHORUS / POTASSIUM / SODIUM / TOTAL BILIRUBIN / TOTAL PROTEIN / URIC ACID / CREATINE PHOSPHOKINASE: tissue Plasma
# [1] = sc, 0 mg/kg, vehicle control, route mini-PUMP - SUBCUTANEOUS, dose level Control, vehicle 100 % SALINE
# [2] = sc, […], route mini-PUMP - SUBCUTANEOUS, dose 0.44 mg/Kg, dose level High, vehicle 100 % SALINE
# [3] = po, 0 mg/kg, vehicle control, route oral GAVAGE, dose level Control, vehicle 100 % WATER
# [4] = po, 120 mg/kg, route oral GAVAGE, dose level High, vehicle 100 % WATER
# Description: DrugMatrix - Regimen: Single
compound,measurement,setting,value
CNC[C@H](O)c1cccc(O)c1 [PHENYLEPHRINE],ABSOLUTE EOSINOPHIL,[1],26.17 CELLS/uL
same,ABSOLUTE LYMPHOCYTE,[1],10985.83 CELLS/uL
same,ABSOLUTE MONOCYTE,[1],234.5 CELLS/uL
same,ABSOLUTE SEGMENTED NEUTROPHIL,[1],1753.5 CELLS/uL
same,BASOPHIL,[1],0%
same,EOSINOPHIL,[1],0.17%
same,ERYTHROCYTE COUNT,[1],5.64 x10E6/uL
same,HEMATOCRIT,[1],34.52%
same,HEMOGLOBIN,[1],12.68 G/DL
same,LEUKOCYTE COUNT,[1],13 x10E3/uL
same,LYMPHOCYTE,[1],84.5%
same,MEAN CORPUSCULAR HEMOGLOBIN,[1],22.5 pg
same,MEAN CORPUSCULAR HEMOGLOBIN CONCENTRATION,[1],36.78 G/DL
same,MEAN CORPUSCULAR VOLUME,[1],61.18 fL
same,MONOCYTE,[1],1.83%
same,NEUTROPHIL,[1],13.5%
same,NUCLEATED RED BLOOD CELLS,[1],0.17 /100WBC
same,PLATELET COUNT,[1],679.17 x10E3/uL
same,ALANINE AMINOTRANSFERASE,[1],42.67 u/L
same,ALBUMIN,[1],3.77 G/DL
same,ALKALINE PHOSPHATASE,[1],291.17 u/L
same,ASPARTATE AMINOTRANSFERASE,[1],74.5 u/L
same,BLOOD UREA NITROGEN,[1],15.33 mg/dL
same,CARBON DIOXIDE,[1],30 mmol/L
same,CHLORIDE,[1],100.83 MEQ/L
same,CHOLESTEROL,[1],65.33 mg/dL
same,CREATININE,[1],0.15 mg/dL
same,GLUCOSE,[1],179.83 mg/dL
same,LACTATE DEHYDROGENASE,[1],162.67 u/L
same,LIPASE,[1],8.5 u/L
same,PHOSPHORUS,[1],12.2 mg/dL
same,POTASSIUM,[1],5.73 MEQ/L
same,SODIUM,[1],144.7 MEQ/L
same,TOTAL BILIRUBIN,[1],0.15 mg/dL
same,TOTAL PROTEIN,[1],5.87 G/DL
same,URIC ACID,[1],1.93 mg/dL
same,ABSOLUTE EOSINOPHIL,[2],0 CELLS/uL
same,ABSOLUTE LYMPHOCYTE,[2],12992 CELLS/uL
same,ABSOLUTE MONOCYTE,[2],416.33 CELLS/uL
same,ABSOLUTE SEGMENTED NEUTROPHIL,[2],3025 CELLS/uL
same,BASOPHIL,[2],0%
same,EOSINOPHIL,[2],0%
same,ERYTHROCYTE COUNT,[2],6.07 x10E6/uL
same,HEMATOCRIT,[2],36.37%
same,HEMOGLOBIN,[2],13.2 G/DL
same,LEUKOCYTE COUNT,[2],16.43 x10E3/uL
same,LYMPHOCYTE,[2],79%
same,MEAN CORPUSCULAR HEMOGLOBIN,[2],21.77 pg
same,MEAN CORPUSCULAR HEMOGLOBIN CONCENTRATION,[2],36.27 G/DL
same,MEAN CORPUSCULAR VOLUME,[2],59.93 fL
same,MONOCYTE,[2],2.33%
same,NEUTROPHIL,[2],18.67%
same,NUCLEATED RED BLOOD CELLS,[2],0 /100WBC
same,PLATELET COUNT,[2],1118.67 x10E3/uL
same,ALANINE AMINOTRANSFERASE,[2],37.33 u/L
same,ALBUMIN,[2],3.83 G/DL
same,ALKALINE PHOSPHATASE,[2],259 u/L
same,ASPARTATE AMINOTRANSFERASE,[2],64.33 u/L
same,BLOOD UREA NITROGEN,[2],11.67 mg/dL
same,CARBON DIOXIDE,[2],30 mmol/L
same,CHLORIDE,[2],101.67 MEQ/L
same,CHOLESTEROL,[2],75.67 mg/dL
same,CREATININE,[2],0.16 mg/dL
same,GLUCOSE,[2],171.33 mg/dL
same,LACTATE DEHYDROGENASE,[2],133.67 u/L
same,LIPASE,[2],9 u/L
same,PHOSPHORUS,[2],14.13 mg/dL
same,POTASSIUM,[2],6.67 MEQ/L
same,SODIUM,[2],146.87 MEQ/L
same,TOTAL BILIRUBIN,[2],0.1 mg/dL
same,TOTAL PROTEIN,[2],5.97 G/DL
same,URIC ACID,[2],3.6 mg/dL
COCCc1ccc(OCC(O)CNC(C)C)cc1 (centres undefined) [METOPROLOL],ABSOLUTE BASOPHIL,[3],63.3 cells/µL
same,ABSOLUTE EOSINOPHIL,[3],66.7 cells/µL
same,ABSOLUTE LYMPHOCYTE,[3],8010 cells/µL
same,ABSOLUTE MONOCYTE,[3],240 cells/µL
same,BASOPHIL,[3],0.6%
same,EOSINOPHIL,[3],0.6%
same,ERYTHROCYTE COUNT,[3],6.25 x10E6/uL
same,HEMATOCRIT,[3],40.47%
same,HEMOGLOBIN,[3],12.83 G/DL
same,LEUKOCYTE COUNT,[3],10.19 x10E3/uL
same,LYMPHOCYTE,[3],78.7%
same,MEAN CORPUSCULAR HEMOGLOBIN,[3],20.53 pg
same,MEAN CORPUSCULAR HEMOGLOBIN CONCENTRATION,[3],31.73 G/DL
same,MEAN CORPUSCULAR VOLUME,[3],64.67 fL
same,MONOCYTE,[3],2.5%
same,NEUTROPHIL,[3],17.07%
same,PLATELET COUNT,[3],1297 x10E3/uL
same,ALANINE AMINOTRANSFERASE,[3],32.67 u/L
same,ALBUMIN,[3],3.9 G/DL
same,ALKALINE PHOSPHATASE,[3],374 u/L
same,ASPARTATE AMINOTRANSFERASE,[3],64.33 u/L
same,BLOOD UREA NITROGEN,[3],14 mg/dL
same,CARBON DIOXIDE,[3],45.67 mmol/L
same,CHLORIDE,[3],103 MEQ/L
same,CHOLESTEROL,[3],82.67 mg/dL
same,CREATINE PHOSPHOKINASE,[3],216.33 u/L
same,CREATININE,[3],0.17 mg/dL
same,GLUCOSE,[3],161.33 mg/dL
same,LACTATE DEHYDROGENASE,[3],103.67 u/L
same,LIPASE,[3],8.67 u/L
same,PHOSPHORUS,[3],11 mg/dL
same,POTASSIUM,[3],6.83 MEQ/L
same,SODIUM,[3],144.67 MEQ/L
same,TOTAL BILIRUBIN,[3],0.27 mg/dL
same,TOTAL PROTEIN,[3],6.27 G/DL
same,URIC ACID,[3],0.67 mg/dL
same,ABSOLUTE BASOPHIL,[4],66.7 cells/µL
same,ABSOLUTE EOSINOPHIL,[4],90 cells/µL
same,ABSOLUTE LYMPHOCYTE,[4],8230 cells/µL
same,ABSOLUTE MONOCYTE,[4],290 cells/µL
same,BASOPHIL,[4],0.6%
same,EOSINOPHIL,[4],0.9%
same,ERYTHROCYTE COUNT,[4],6.76 x10E6/uL
same,HEMATOCRIT,[4],44.17%
same,HEMOGLOBIN,[4],14.1 G/DL
same,LEUKOCYTE COUNT,[4],10.39 x10E3/uL
same,LYMPHOCYTE,[4],79.03%
same,MEAN CORPUSCULAR HEMOGLOBIN,[4],20.87 pg
same,MEAN CORPUSCULAR HEMOGLOBIN CONCENTRATION,[4],31.9 G/DL
same,MEAN CORPUSCULAR VOLUME,[4],65.33 fL
same,MONOCYTE,[4],2.8%
same,NEUTROPHIL,[4],16.1%
same,PLATELET COUNT,[4],1170 x10E3/uL
same,ALANINE AMINOTRANSFERASE,[4],33.33 u/L
same,ALBUMIN,[4],3.83 G/DL
same,ALKALINE PHOSPHATASE,[4],431 u/L
same,ASPARTATE AMINOTRANSFERASE,[4],59 u/L
same,BLOOD UREA NITROGEN,[4],13 mg/dL
same,CARBON DIOXIDE,[4],38.67 mmol/L
same,CHLORIDE,[4],103.33 MEQ/L
same,CHOLESTEROL,[4],74 mg/dL
same,CREATINE PHOSPHOKINASE,[4],229.33 u/L
same,CREATININE,[4],0.3 mg/dL
same,GLUCOSE,[4],178 mg/dL
same,LACTATE DEHYDROGENASE,[4],77.67 u/L
same,LIPASE,[4],8 u/L
same,PHOSPHORUS,[4],12.3 mg/dL
same,POTASSIUM,[4],6.47 MEQ/L
same,SODIUM,[4],144 MEQ/L
same,TOTAL BILIRUBIN,[4],0.23 mg/dL
same,TOTAL PROTEIN,[4],6.2 G/DL
same,URIC ACID,[4],0.9 mg/dL
